According to patent publication EP2495244A1, “Piperidinyl benzoimidazole derivatives as mPGEs-1 inhibitors” (NovaSaid AB, priority 2011, dated 2012):

What was measured:
cellular PGE2 synthesis = experiment: A549 cell-assay (PGE2 content of supernatant by EIA); assay type: cell-based; conditions: Homo sapiens, A549 lung carcinoma cells, TNFalfa (5 ng/mL) and IL-1beta (5 ng/mL) 16 hours, 30 minutes with test compound, 10 µM arachidonic acid 30 minutes, arithmetic mean values
Description: Prostaglandin detection kits were purchased from Cayman Chemicals and used according to the instruction of the manufacturer.
A549 lung carcinoma cells, seeded at a density of 10, 000 cells/well, were grown in 96 well tissue culture plates. TNFalfa (5 ng/mL) and IL-1beta (5 ng/mL) were added and the cells were incubated for 16 hours. Cells were washed in PBS and test compounds at the appropriate concentration in HBSS/0.1% BSA were added. After 30 minutes of incubation with test compounds, 10 µM arachidonic acid was added and cells were further incubated for 30 minutes. Supernatant was collected and analyzed for PGE2 content by EIA according to manufacturer's instructions. Table 1. Inhibition of human mPGEs-1 and cellular PGE2 synthesis.

human mPGEs-1 = target: T1, human mPGEs-1 (Homo sapiens, UniProt O14684); experiment: Thiobarbituric acid assay (TBA-MDA assay, malondialdehyde assay) for inhibition of mPGEs-1
T1 sequence (O14684 1-152): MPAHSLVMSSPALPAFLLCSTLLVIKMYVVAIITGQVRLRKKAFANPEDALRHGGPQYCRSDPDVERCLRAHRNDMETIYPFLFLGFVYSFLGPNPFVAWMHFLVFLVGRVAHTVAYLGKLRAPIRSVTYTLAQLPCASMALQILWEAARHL

Structure (SMILES)	IC50 (cellular PGE2 synthesis)	IC50 (human mPGEs-1)
Cc1cc2nc(N3CCC(C(=O)N[C@@H]4CCOC4)CC3)n(-c3ccc4ccccc4n3)c2cc1Cl [Example 3, (R)-1-(6-Chloro-5-methyl-1-(quinolin-2-yl)-1H-benzo[d]imidazol-2-yl)-N (tetrahydrofuran-3-yl)piperidine-4-carboxamide]	58 nM	37 nM
Cc1cc2c(cc1Cl)nc(N1CCC(C(=O)N[C@@H]3CCOC3)CC1)n2-c1ccc2ccccc2n1 [Example 2, (R)-1-(5-Chloro-6-methyl-1-(quinolin-2-yl)-1H-benzo[d]imidazol-2-yl)-N-(tetrahydrofuran-3-yl)piperidine-4-carboxamide]	58 nM	25 nM
O=C(N[C@@H]1CCOC1)C1CCN(c2nc3cc(Cl)c(Cl)cc3n2-c2ccc3cccc(Cl)c3n2)CC1 [Example 5, (R)-1-(5,6-Dichloro-1-(8-chloroquinolin-2-yl)-1H-benzo[d]imidazol-2-yl)-N-(tetrahydrofuran-3-yl)piperidine-4-carboxamide]	4 nM	34 nM
O=C(N[C@@H]1CCOC1)C1CCN(c2nc3cc(Cl)c(Cl)cc3n2-c2ccc3ccccc3n2)CC1 [Example 1, (R)-1-(5,6-Dichloro-1-(quinolin-2-yl)-1H-benzo[d]imidazol-2-yl)-N-(tetrahydrofuran-3-yl)piperidine-4-carboxamide]	43 nM	
Cc1cc2nc(N3CCC(C(=O)N[C@@H]4CCOC4)CC3)n(-c3ccc4cc(Cl)ccc4n3)c2cc1C [Example 6, (R)-1-(1-(6-Chloroquinolin-2-yl)-5,6-dimethyl-1H-benzo[d]imidazol-2-yl)-N-(tetrahydrofuran-3-yl)piperidine-4-carboxamide]	50 nM	58 nM
O=C(N[C@@H]1CCOC1)C1CCN(c2nc3cc(Cl)c(Cl)cc3n2-c2ccc3cc(Cl)ccc3n2)CC1 [Example 4, (R)-1-(5,6-Dichloro-1-(6-chloroquinolin-2-yl)-1H-benzo[d]imidazol-2-yl)-N-(tetrahydrofuran-3-yl)piperidine-4-carboxamide]	44 nM	35 nM

More lines, now with the values ahead:

IC50 (cellular PGE2 synthesis)	IC50 (human mPGEs-1)	Structure (SMILES)
61 nM	42 nM	O=C(N[C@@H]1CCOC1)C1CCN(c2nc3cc(Cl)c(Cl)cc3n2-c2ccc3cc(F)ccc3n2)CC1 [Example 10, (R)-1-(5,6-Dichloro-1-(6-fluoroquinolin-2-yl)-1H-benzo[d]imidazol-2-yl)-N-(tetrahydrofuran-3-yl)piperidine-4-carboxamide]
	150 nM	O=C(N[C@@H]1CCOC1)C1CCN(c2nc3cc(Cl)c(Cl)cc3n2-c2ccccn2)CC1 [Example 16, (R)-1-(5,6-dichloro-1-(pyridin-2-yl)-1H-benzo[d]imidazol-2-yl)-N-(tetrahydrofuran-3-yl)piperidine-4-carboxamide]
16 nM	47 nM	Cc1cc2c(cc1Cl)nc(N1CCC(C(=O)N[C@@H]3CCOC3)CC1)n2-c1ccc2cc(F)ccc2n1 [Example 11, (R)-1-(5-Chloro-1-(6-fluoroquinolin-2-yl)-6-methyl-1H-benzo[d]imidazol-2-yl)-N-(tetrahydrofuran-3-yl)piperidine-4-carboxamide]
40 nM	31 nM	Cc1cc2c(cc1Cl)nc(N1CCC(C(=O)N[C@@H]3CCOC3)CC1)n2-c1ccc2cc(Cl)ccc2n1 [Example 8, (R)-1-(5-Chloro-1-(6-chloroquinolin-2-yl)-6-methyl-1H-benzo[d]imidazol-2-yl)-N-(tetrahydrofuran-3-yl)piperidine-4-carboxamide]
	21 nM	O=C(N[C@@H]1CCOC1)C1CCN(c2nc3cc(Cl)c(Cl)cc3n2-c2cc3ccccc3cn2)CC1 [Example 14, (R)-1-(5,6-Dichloro-1-(isoquinolin-3-yl)-1H-benzo[d]imidazol-2-yl)-N-(tetrahydrofuran-3-yl)piperidine-4-carboxamide]
	30 nM	O=C(N[C@@H]1CCOC1)C1CCN(c2nc3cc(Cl)c(Cl)cc3n2-c2ccc3cccc(F)c3n2)CC1 [Example 13, (R)-1-(5,6-Dichloro-1-(8-fluoroquinolin-2-yl)-1H-benzo[d]imidazol-2-yl)-N-(tetrahydrofuran-3-yl)piperidine-4-carboxamide]
24 nM	26 nM	Cc1cc2nc(N3CCC(C(=O)N[C@@H]4CCOC4)CC3)n(-c3ccc4cc(F)ccc4n3)c2cc1Cl [Example 12, (R)-1-(6-Chloro-1-(6-fluoroquinolin-2-yl)-5-methyl-1H-benzo[d]imidazol-2-yl)-N-(tetrahydrofuran-3-yl)piperidine-4-carboxamide]
67 nM	51 nM	Cc1cc2nc(N3CCC(C(=O)N[C@@H]4CCOC4)CC3)n(-c3ccc4cc(Cl)ccc4n3)c2cc1Cl [Example 9, (R)-1-(6-Chloro-1-(6-chloroquinolin-2-yl)-5-methyl-1H-benzo[d]imidazol-2-yl)-N-(tetrahydrofuran-3-yl)piperidine-4-carboxamide]
30 nM	32 nM	Cc1cc(-n2c(N3CCC(C(=O)N[C@@H]4CCOC4)CC3)nc3cc(Cl)c(Cl)cc32)nc2ccccc12 [Example 7, (R)-1-(5,6-Dichloro-1-(4-methylquinolin-2-yl)-1H-benzo[d]imidazol-2-yl)-N-(tetrahydrofuran-3-yl)piperidine-4-carboxamide]
66 nM	65 nM	Cc1cc2nc(N3CCC(C(=O)N[C@@H]4CCOC4)CC3)n(-c3ccc4ncccc4c3)c2cc1C [Example 15, (R)-1-(5,6-dimethyl-1-(quinolin-6-yl)-1H-benzo[d]imidazol-2-yl)-N-(tetrahydrofuran-3-yl)piperidine-4-carboxamide]
